This passage reports IC50 results from patent publication US10793542B2, “Hetroarylamine compounds for modulating the hedgehog pathway and preparing method and uses thereof” (DEVELOPMENT CENTER FOR BIOTECHNOLOGY, priority 2016, dated 2020).

Some results are limits rather than exact numbers.

Common to all, as to assay type: cell-based
The subject of test [1] is hedgehog pathway (pGL3-7xGli-Luciferase reporter in C3H10T1/2 cells). The test can be described thus: Transient transfection of C3H10T1/2 and Gli-Luc reporter assay with SAG stimulation. The settings on record: Mus musculus, C3H 10T1/2, SAG 20 nM, 48 hr, read-out: Inhibition of Gli-Luc expression [IC50. In a few lines:
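C3H10T1/2 cells were transiently transfected with a 7xGli-firefly luciferase reporter and a TK-Renilla control, then treated with serially diluted compounds plus 20 nM SAG in 0.5% FBS for 48 h at 37 °C. Firefly signal was normalized to Renilla and scaled between DMSO with SAG (100%) and without SAG (0%). IC50 was obtained by nonlinear regression.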

In test [2] the target is T1, Smo wild type (Homo sapiens, UniProt Q99835).
T1 construct: expressed in transfected cells; host or cells: C3H10T1/2 cells (ATCC CCL-226), transient transfection with pLPCX-SMO
The test can be described thus: Reporter assay of C3H10T1/2-Gli-Luc cells transfected with wild-type Smo, without SAG. The settings on record: C3H10T1/2 cells transfected with pLPCX-SMO, no SAG, 48 hr; read-out: Inhibition of C3H10T1/2-Gli-Luc-Smo-WT [IC50. The gist of the method: (§1)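 C3H10T1/2-Gli-Luc cells transiently transfected with wild-type or D473H SMO, replated in 0.5% FBS RPMI and incubated with compounds 48 h at 37 °C without SAG. Dual-luciferase, firefly normalized to Renilla; scaled to DMSO (100%) and 10 μM ALLO-2 (0%); IC50 by nonlinear regression.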
On the technique in general: Reporter assays use an easily measured gene product as a stand-in for the process of interest.

Test [3] concerns the target T2, Smo D473H mutant (Homo sapiens, UniProt Q99835, D473H).
T2 construct: expressed in transfected cells; host or cells: C3H10T1/2 cells (ATCC CCL-226), transient transfection with pLPCX-SMO-D473H
Nature of the test: Reporter assay of C3H10T1/2-Gli-Luc cells transfected with Smo D473H mutant, without SAG. The following applies: C3H10T1/2 cells transfected with pLPCX-SMO-D473H, no SAG, 48 hr; read-out: Inhibition of C3H10T1/2-Gli-Luc-Smo-D473H [IC50. In a few lines: as §1

T1 sequence (Q99835 28-787): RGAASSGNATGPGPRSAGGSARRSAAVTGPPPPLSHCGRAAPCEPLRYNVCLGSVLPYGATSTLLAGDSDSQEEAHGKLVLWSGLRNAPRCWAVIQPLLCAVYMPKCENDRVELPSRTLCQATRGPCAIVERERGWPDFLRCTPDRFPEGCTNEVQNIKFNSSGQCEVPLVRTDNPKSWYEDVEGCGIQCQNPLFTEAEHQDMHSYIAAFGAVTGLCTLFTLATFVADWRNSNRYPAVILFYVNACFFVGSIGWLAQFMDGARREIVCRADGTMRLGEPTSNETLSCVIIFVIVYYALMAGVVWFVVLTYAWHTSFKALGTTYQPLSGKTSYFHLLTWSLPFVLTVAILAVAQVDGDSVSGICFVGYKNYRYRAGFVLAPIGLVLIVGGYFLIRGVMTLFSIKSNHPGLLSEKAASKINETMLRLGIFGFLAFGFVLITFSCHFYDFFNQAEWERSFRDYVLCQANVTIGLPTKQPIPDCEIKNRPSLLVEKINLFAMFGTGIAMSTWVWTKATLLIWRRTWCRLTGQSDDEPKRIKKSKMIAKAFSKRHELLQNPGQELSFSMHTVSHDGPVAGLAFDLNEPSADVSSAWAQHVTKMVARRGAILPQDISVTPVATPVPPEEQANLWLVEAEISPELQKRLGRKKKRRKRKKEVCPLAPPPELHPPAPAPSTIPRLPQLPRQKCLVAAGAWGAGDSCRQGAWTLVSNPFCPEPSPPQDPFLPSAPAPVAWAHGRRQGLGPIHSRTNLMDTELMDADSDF
T2 sequence (Q99835 28-787 D473H): as the sequence (Q99835 28-787) above, with D446H counted along it

With `CCOc1cnc(Nc2ccc(C(=O)Nc3cc(CN(CC)CC)ccc3C)cc2)nc1-c1ccc(OC(F)(F)F)cc1` [Compound 74, N-(5-Diethylaminomethyl-2-methyl-phenyl)-4-[5-ethoxy-4-(4-trifluoromethoxy-phenyl)-pyrimidin-2-ylamino]-benzamide], the IC50 was under 100 nM in test [1], under 100 nM in test [2] and 100 to 1000 nM in test [3].

As for `CCOc1cnc(Nc2ccc(C(=O)Nc3cc(CN4CCOCC4)ccc3C)cc2)nc1-c1ccc(OC(F)(F)F)cc1` [Compound 72, 4-[5-Ethoxy-4-(4-trifluoromethoxy-phenyl)-pyrimidin-2-ylamino]-N-(2-methyl-5-morpholin-4-ylmethyl-phenyl)-benzamide], the IC50 in test [1], in test [2] and in test [3] was under 100 nM each time.

As for `CSc1cnc(Nc2ccc(C(=O)Nc3cc(CN4CCN(C)CC4)ccc3C)cc2)cc1-c1ccc(F)cc1` [Compound 89, 4-((4-(4-fluorophenyl)-5-(methylthio)pyridin-2-yl)amino)-N-(2-methyl-5-((4-methylpiperazin-1-yl)methyl)phenyl)benzamide], the IC50 is under 100 nM in test [1], under 100 nM in test [2] and 100 to 1000 nM in test [3].

Turning to `CSc1cnc(Nc2ccc(C(=O)Nc3cc(CN4CCOCC4)ccc3C)cc2)nc1-c1cnn(C)c1` [Compound 39, N-(2-Methyl-5-morpholin-4-ylmethyl-phenyl)-4-[4-(1-methyl-1H-pyrazol-4-yl)-5-methylsulfanyl-pyrimidin-2-ylamino]-benzamide], the IC50 in test [1], in test [2] and in test [3] was 100 to 1000 nM each time.

Regarding `COc1cccc(OC)c1NC(=O)c1ccc(Nc2ncc(SC)c(-c3cccnc3F)n2)c(F)c1` [Compound 13, N-(2,6-Dimethoxy-phenyl)-3-fluoro-4-[4-(2-fluoro-pyridin-3-yl)-5-methylsulfanyl-pyrimidin-2-ylamino]-benzamide], the IC50 in test [1], in test [2] and in test [3] was 100 to 1000 nM throughout.

For the compound `CSc1cnc(Nc2ccc(C(=O)Nc3cccc(CN4CCOCC4)c3)cc2F)nc1-c1ccc(OC(F)(F)F)cc1` [Compound 44, 3-Fluoro-4-[5-methylsulfanyl-4-(4-trifluoromethoxy-phenyl)-pyrimidin-2-ylamino]-N-(3-morpholin-4-ylmethyl-phenyl)-benzamide], the IC50 in test [1], in test [2] and in test [3] was under 100 nM in each case.

Turning to `Cc1ccc(CN2CCOCC2)cc1NC(=O)c1ccc(Nc2ncc([S+](C)[O-])c(-c3ccc(OC(F)(F)F)cc3)n2)cc1` (stereo not drawn) [Compound 85, 4-[5-Methanesulfinyl-4-(4-trifluoromethoxy-phenyl)-pyrimidin-2-ylamino]-N-(2-methyl-5-morpholin-4-ylmethyl-phenyl)-benzamide], the IC50 in test [1], in test [2] and in test [3] was under 100 nM each time.

For the compound `CSc1cnc(Nc2ccc(C(=O)Nc3ccccc3)cc2)nc1-c1ccc(C#N)cc1` [Compound 3, 4-[4-(4-Cyano-phenyl)-5-methylsulfanyl-pyrimidin-2-ylamino]-N-phenyl-benzamide], the IC50 in test [1], in test [2] and in test [3] was 100 to 1000 nM in each case.

With `COc1cnc(Nc2ccc(C(=O)Nc3cc(CN4CCOCC4)ccc3C)cc2F)nc1-c1ccc(F)cc1` [Compound 60, 3-Fluoro-4-[4-(4-fluoro-phenyl)-5-methoxy-pyrimidin-2-ylamino]-N-(2-methyl-5-morpholin-4-ylmethyl-phenyl)-benzamide], the IC50 in test [1], in test [2] and in test [3] was under 100 nM each time.

Regarding `COc1cccc(OC)c1NC(=O)c1ccc(Nc2ncc(SC)c(-c3ccccc3)n2)cc1` [Compound 21, N-(2,6-Dimethoxy-phenyl)-4-(5-methylsulfanyl-4-phenyl-pyrimidin-2-ylamino)-benzamide], the figures for the IC50 in test [1], in test [2] and in test [3] were under 100 nM, under 100 nM and 100 to 1000 nM, respectively.

`CSc1cnc(Nc2ccc(C(=O)Nc3cc(CN4CCCCC4)ccc3C)cc2F)nc1-c1ccc(F)cc1` [Compound 42, 3-Fluoro-4-[4-(4-fluoro-phenyl)-5-methylsulfanyl-pyrimidin-2-ylamino]-N-(2-methyl-5-piperidin-1-ylmethyl-phenyl)-benzamide]: the IC50 is under 100 nM in test [1], under 100 nM in test [2] and 100 to 1000 nM in test [3].

Consider `CSc1cnc(Nc2ccc(C(=O)Nc3cc(CN4CCOCC4)ccc3C)cc2F)nc1-c1ccc(OC(F)(F)F)cc1` [Compound 40, 3-Fluoro-N-(2-methyl-5-morpholin-4-ylmethyl-phenyl)-4-[5-methylsulfanyl-4-(4-trifluoromethoxy-phenyl)-pyrimidin-2-ylamino]-benzamide], for which the IC50 in test [1], in test [2] and in test [3] was under 100 nM throughout.

Turning to `COc1cnc(Nc2ccc(C(=O)Nc3cc(CN4CCNCC4)ccc3C)cc2F)nc1-c1ccc(F)cc1` [Compound 80, 3-Fluoro-4-[4-(4-fluoro-phenyl)-5-methoxy-pyrimidin-2-ylamino]-N-(2-methyl-5-piperazin-1-ylmethyl-phenyl)-benzamide], the IC50 in test [1] is under 100 nM; in test [2], 100 to 1000 nM; in test [3] it was 100 to 1000 nM.

For `CSc1cnc(Nc2ccc(C(=O)Nc3cc(CN4CCN(C)CC4)ccc3C)cc2F)nc1-c1cnn(C)c1` [Compound 46, 3-Fluoro-N-[2-methyl-5-(4-methyl-piperazin-1-ylmethyl)-phenyl]-4-[4-(1-methyl-1H-pyrazol-4-yl)-5-methylsulfanyl-pyrimidin-2-ylamino]-benzamide], the results for the IC50 in test [1], in test [2] and in test [3] were under 100 nM, under 100 nM and 100 to 1000 nM, respectively.

As for `CSc1cnc(Nc2ccc(C(=O)Nc3cc(CN4CCOCC4)ccc3C)cc2)nc1-c1ccc(OC(F)(F)F)cc1` [Compound 24, N-(2-Methyl-5-morpholin-4-ylmethyl-phenyl)-4-[5-methylsulfanyl-4-(4-trifluoromethoxy-phenyl)-pyrimidin-2-ylamino]-benzamide], the IC50 in test [1], in test [2] and in test [3] was under 100 nM throughout.

Turning to `CSc1cnc(Nc2ccc(C(=O)Nc3cc(CN4CCOCC4)ccc3C)cc2)nc1-c1ccc(F)cc1` [Compound 30, 4-[4-(4-Fluoro-phenyl)-5-methylsulfanyl-pyrimidin-2-ylamino]-N-(2-methyl-5-morpholin-4-ylmethyl-phenyl)-benzamide], the IC50 in test [1] is under 100 nM; in test [2] it was under 100 nM; in test [3], 100 to 1000 nM.

Turning to `CSc1cnc(Nc2ccc(C(=O)Nc3cc(CN4CCOCC4)ccc3C)cc2)nc1-c1ccc(C(F)(F)F)cc1` [Compound 27, N-(2-Methyl-5-morpholin-4-ylmethyl-phenyl)-4-[5-methylsulfanyl-4-(4-tiifluoromethyl-phenyl)-pyrimidin-2-ylamino]-benzamide], the IC50 in test [1] is under 100 nM; in test [2] it was under 100 nM; in test [3], 100 to 1000 nM.

Consider `CSc1cnc(Nc2ccc(C(=O)Nc3ccccc3C)cc2)nc1-c1ccc(OC(F)(F)F)cc1` [Compound 23, 4-[5-Methylsulfanyl-4-(4-trifluoromethoxy-phenyl)-pyrimidin-2-ylamino]-N-o-tolyl-benzamide], for which the values for the IC50 in test [1], in test [2] and in test [3] were 100 to 1000 nM, under 100 nM and 100 to 1000 nM, respectively.

On to `CSc1cnc(Nc2ccc(C(=O)Nc3cc(CN4CCOCC4)ccc3F)cc2)nc1-c1ccc(F)cc1` [Compound 71, N-(2-Fluoro-5-morpholin-4-ylmethyl-phenyl)-4-[4-(4-fluoro-phenyl)-5-methylsulfanyl-pyrimidin-2-ylamino]-benzamide], for which the IC50 in test [1], in test [2] and in test [3] was under 100 nM in each case.

For the compound `CSc1cnc(Nc2ccc(C(=O)Nc3cccc(CN4CCOCC4)c3)cn2)nc1-c1ccc(OC(F)(F)F)cc1` [Compound 64, 6-[5-Methylsulfanyl-4-(4-trifluoromethoxy-phenyl)-pyrimidin-2-ylamino]-N-(3-morpholin-4-ylmethyl-phenyl)-nicotinamide], the IC50 in test [1], in test [2] and in test [3] was under 100 nM each time.

On to `CSc1cnc(Nc2ccc(C(=O)Nc3cc(CN4CCOCC4)ccc3C)cc2)nc1-c1ccc(F)nc1` [Compound 67, 4-[4-(6-Fluoro-pyridin-3-yl)-5-methylsulfanyl-pyrimidin-2-ylamino]-N-(2-methyl-5-morpholin-4-ylmethyl-phenyl)-benzamide], for which the IC50 was under 100 nM in test [1], under 100 nM in test [2] and 100 to 1000 nM in test [3].

Take `CCN(CC)Cc1ccc(C)c(NC(=O)c2ccc(Nc3ncc(OC)c(-c4ccc(OC(F)(F)F)cc4)n3)c(F)c2)c1` [Compound 61, N-(5-Diethylaminomethyl-2-methyl-phenyl)-3-fluoro-4-[5-methoxy-4-(4-trifluoromethoxy-phenyl)-pyrimidin-2-ylamino]-benzamide]: the IC50 in test [1] was under 100 nM; in test [2], under 100 nM; in test [3] it was 100 to 1000 nM.
